# Measurements as given in US10806726B2, “Methods of using indazole-3-carb oxamides and their use as Wnt/B-catenin signaling pathway inhibitors” (Samumed, LLC, priority 2016, dated 2020).
# Tests used:
# [1] = tested on: collagenase-induced tendonitis of the Achilles tendon in Sprague Dawley rats; assay: Rat Tendinopathy Model (1), collagenase-induced, tendon histology scoring; assay type: in vivo; conditions: for tendon histology score: topical once daily 21 days, total score of 20
# Description: Fifty (50 μl) of Collagenase Type IA (10 mg/ml in PBS, pH 7.4, approximately 469 units/mg) (Catalog # C5138, Sigma, St. Louis, Mo.) was injected into the Achilles tendon of both ankles near the osteotendinous junction of male Sprague Dawley CD® IGS rats (CRL, Inc.), using insulin syringes with 28.5 G needle.
# Rats were divided into […] with 5 animals per group: Group 1 (sham injection); Group 2 (Collagenase-Vehicle); Group 3 (Collagenase-compound 175 10 mg/mL with 1% BA) and Group 4 (Collagenase-COMPOUND 175 10 mg/mL with 0.5% Tween 80). […] All rats were periodically observed for any pain, illnesses or abnormalities. At various time points, blood was collected for plasma in lithium heparin coated tubes by saphenous vein bleeding. For histology, rats were euthanized using isoflurane, tendons were isolated (n=6 tendons/group), fixed in 10% buffered formalin (Catalog # SF93-4, Fisher, Pittsburgh Pa.) and H & E histology staining was performed at a secondary site (Pacific Pathology, San Diego, Calif.). For biochemical analysis, tendons were isolated (n=4 tendons/group), flash frozen in liquid nitrogen and then stored at −80° C. for subsequent biochemical analysis (not reported).
# There is biological variability in response to collagenase when injected directly into the tendons. […] Slides were viewed under an upright light microscope (EVOS AMEX-1200) at a 10× magnification and scored blinded using a 1-4 scoring system of severity: 1—representing severe damage and 4—representing normal tendon, for Linearity of the fiber structure, Shape of the tendon cells, Density of the tendon cells, Inflammation, and Hemorrhage for a total score of twenty (20) using a modification of that described previously (Urdzikova et al., 2014—see Table 3). […]
# For tendon scoring, each section was analyzed following a 1-4 point scoring system as previously described (Urdzikova et al., 2014) with the exclusion of one variable, the Thickness of the epitenon, due to the difficulty in discerning the epitenon layer in histology sections. […]
# [2] = tested on: Wnt responsive promoter linked to luciferase gene in SW480 cells; assay: Wnt Reporter Assay, SW480, 48 hours (Example 10); assay type: cell-based; conditions: Homo sapiens, 10-0.0003 μM, read-out: EC50, inhibition of Wnt pathway activity
# Description: SW480 cells (ATCC) were cultured in Dulbecco's modified Eagle's medium (DMEM, ThermoFisher) with 1% Glutamax (Life Technologies), 1% Penicillin-Streptomycin (Life Technologies), 150 ug/ml Hygromycin (Life Technologies) with 10% fetal bovine serum (FBS) (Hyclone) at 37° C., 5% CO2.
# Wnt Reporter Assay. Human colorectal cancer cell line SW480, stably expressing the Wnt responsive promoter linked to luciferase gene, was plated overnight at 4×10e^4 cells/well in DMEM, high glucose, no glutamine, no phenol red (Life Technologies), 1% Glutamax (Life Technologies), 1% Sodium Pyruvate (Life Technologies), 1% Penicillin-Streptomycin (Life Technologies) with 1% Fetal Bovine Serum (Hyclone). Cells were then treated with DMSO (vehicle control) or COMPOUND 175 at 10 μM top concentration and half a log dilution up to 10 concentrations (10, 3, 1, 0.3, 0.1, 0.03, 0.01, 0.003, 0.001 and 0.0003 μM). Cells were incubated for 48 hours at 37° C. 15 μl of Bright-Glo (Bright-Glo™ Luciferase Assay System, Promega) was added to the cells and luminescence was measured using the Cytation 3 plate reader (Biotek). Data was normalized using the DMSO control and inhibition profile and EC50 was calculated using Prism 4 (GraphPad Software Inc, La Jolla, Calif., USA). Prism 4.0 was used to calculate the EC50 of the Wnt reporter inhibition assay.
# [3] = tested on: primary human mesenchymal stem cells (hMSCs); assay: Tenocyte differentiation screening in hMSCs (SCXA-positive cells, 4 days); assay type: cell-based; conditions: 96 h, fold change over DMSO
# In short: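 Primary hMSCs at passage 3–6 were treated with compound, fixed and immunostained for SCXA, and SCXA-positive cells per well were counted by imaging. Counts were normalized to DMSO wells as fold change, averaged over triplicates, and EC50 was fitted, with high-dose values manually corrected for solubility.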
smiles,measurement,setting,value
"COc1ccc(NC(=O)c2n[nH]c3ccc(-c4cncc(CN5CCCCC5)c4)cc23)cn1 [compound 175, N-(6-Methoxypyridin-3-yl)-5-(5-(piperidin-1-ylmethyl)pyridin-3-yl)-1H-indazole-3-carboxamide]",blinded histology scoring of tendon injury and inflammation vs vehicle,"[1]; 10 mg/ml with or without BA preservative, topical 21 days",significantly ameliorated collagenase-induced tendinopathy
same,tendon histology score,"[1]; Group 3, 10 mg/mL with BA",14.0 (±0.217)
same,tendon histology score,"[1]; Group 4, 10 mg/mL without BA (0.5% Tween 80)",12.2 (±0.284)
same,EC50,[2],0.153 µM
same,EC50,[3],10.4 µM
